From paper PMC4234265, “The C-terminus of nisin is important for the ABC transporter NisFEG to confer immunity in Lactococcus lactis” (MicrobiologyOpen, 2014)

Columns and labels:
[1] = system: NZ9000Erm strain; assay: Growth inhibition (IC50) of nisin and variants, sensitive strain; assay type: cell-based, Lactococcus lactis; conditions: from IC50 values against NZ9000Erm
[2] = system: NZ9000NisFEG strain; assay: Growth inhibition (IC50) of nisin and variants, NisFEG-expressing strain; assay type: cell-based, Lactococcus lactis; conditions: for Fold of immunity mediated by NisFEG: IC50 against NZ9000NisFEG compared with IC50 against NZ9000Erm; for Activity of NisFEG reduced to: fold of immunity for the variant relative to wild-type nisin
Procedure: The NZ9000NisFEG and NZ9000NisFH181AEG strains were grown in GM17 media supplemented with 5 μg/mL chloramphenicol to an OD600 of 0.8. By the addition of nisin (final concentration of 1 ng/mL), the expression was induced and the culture was further grown overnight. After 15 h, the cells were diluted to an OD600 of 0.1 in fresh media supplemented with 5 μg/mL chloramphenicol and with the inducer nisin (10 ng/mL).
The NZ9000, NZ9000NisFEG, and NZ9000NisFH181AEG strains were grown overnight in GM17 media supplemented with 5 μg/mL chloramphenicol in the presence of 1 ng/mL nisin. The diluted cells (final OD600 was 0.1) were incubated with a serial dilution of nisin or its variants with 50 mmol/L lactic acid in a 96 well microtiter plate. The total volume in each well was 200 μL, consisting of 50 μL nisin and 150 μL GM17 containing the corresponding L. lactis strain.
The plate was incubated at 30°C. After 5 h, the optical density was measured at 620 nm via 96-plate reader BMG. The normalized optical density was plotted against the logarithm of the nisin concentration in order to calculate the IC50 of nisin and the data was evaluated using the following equation (1): [drawing 1] 1
The IC50 value is the concentration of nisin were the growth of the L. lactis strain is inhibited by 50% as described in more detail earlier (Abts et al. [2011]).

Row | Compound | Fold reduction of antimicrobial activity compared to wild-type nisin [1] [fold] | Fold of immunity mediated by NisFEG [2] [fold] | Activity of NisFEG reduced to [2] [%] | Reduction of NisFEG activity / fold of immunity ([2]; decrease relative to wild-type nisin) [%]
1 | C=C1NC(=O)[C@H]([C@@H](C)CC)NC(=O)[C@H](NC(=O)/C(=C/C)NC(=O)[C@@H](N)[C@@H](C)CC)CSC[C@@H](C(=O)N[C@H]2C(=O)N3CCC[C@H]3C(=O)NCC(=O)N[C@H](C(=O)N[C@@H](CCCCN)C(=O)N[C@H]3C(=O)NCC(=O)N[C@@H](C)C(=O)N[C@@H](CC(C)C)C(=O)N[C@@H](CCSC)C(=O)NCC(=O)N[C@H](C(=O)N[C@@H](CC(N)=O)C(=O)N[C@@H](CCSC)C(=O)N[C@@H](CCCCN)C(=O)O)CS[C@H]3C)CS[C@H]2C)NC(=O)[C@H](CC(C)C)NC1=O [Nisin1-22] | 25 | 2.5 | 33 | 
2 | C=C1NC(=O)[C@H]([C@@H](C)CC)NC(=O)[C@H](NC(=O)/C(=C/C)NC(=O)[C@@H](N)[C@@H](C)CC)CSC[C@@H](C(=O)N[C@H]2C(=O)N3CCC[C@H]3C(=O)NCC(=O)N[C@H](C(=O)N[C@@H](CCCCN)C(=O)N[C@H]3C(=O)NCC(=O)N[C@@H](C)C(=O)N[C@@H](CC(C)C)C(=O)N[C@@H](CCSC)C(=O)NCC(=O)N[C@H](C(=O)N[C@@H](CC(N)=O)C(=O)N[C@@H](CCSC)C(=O)N[C@@H](CCCCN)C(=O)N[C@H]4C(=O)N[C@@H](C)C(=O)N[C@H]5C(=O)N[C@@H](CS[C@H]4C)C(=O)N[C@@H](Cc4c[nH]cn4)C(=O)N[C@H](C(=O)O)CS[C@H]5C)CS[C@H]3C)CS[C@H]2C)NC(=O)[C@H](CC(C)C)NC1=O [Nisin1-28] | 20 | 3.8 | 60 | 50
